Results: patent US10864253B2, “Tissue protective peptides for preventing and treating diseases and disorders associated with tissue damage” (Araim Pharmaceuticals, Inc., priority 2016, dated 2020)

Legend:
[1] = tested on: Akt; assay: Activation of Akt phosphorylation in HUVECs (Western blot); format: cell-based; conditions: HUVECs treated with peptide; Western blot anti-phospho-Akt / anti-Akt; FIG. 2
Description: In one assay for the activation of AKT by phosphorylation, HUVECs are purchased from Cell Applications (San Diego, Calif.) and grown in medium EGM-2 supplemented with 2% fetal calf serum (FCS) and penicillin/streptomycin (P/S) at 37° C. under air containing 5% CO2 in a humidified incubator. Preliminary experiments can be performed to determine the time course of the phosphorylation of Akt following stimulation by compounds that activated the tissue protective receptor. In some assays, the phosphorylation of Akt reaches a maximum 10 minutes following stimulation by compounds that activated the tissue protective receptor. After HUVECs are treated with tissue protective peptides or controls, cell lysates are prepared and Western blot is performed using anti-Akt and anti-phospho-Akt antibodies (Cell Signaling Technology, Danvers, Mass.). To perform the Western blot, cell lysates are subjected to SDS-PAGE, and transferred to nitrocellulose membranes (Amersham Biosciences, Piscataway, N.J.). The membrane is blocked for 1 h at room temperature with PBS containing 2% BSA and 0.05% Tween 20. The blots are incubated overnight at 4° C. or for 4 h at room temperature with a primary antibody against phospho-Akt, followed by incubation for 1 h with a secondary, horseradish peroxidase-conjugated antibody. Then the blots are reprobed with an antibody against Akt to confirm equal protein loading. […]

[2] = tested on: STZ-induced diabetic mice; assay: STZ-induced diabetic neuropathy mouse model, paw thermal withdrawal latency; format: in vivo; conditions: STZ diabetic Swiss Webster mice, FIG. 3
Description: To test a peptide in a diabetic neuropathy mouse model, male Swiss Webster mice are given a single injection of STZ (180 mg/kg i.p.) to induce insulin-deficient diabetes. Hyperglycemia is confirmed 3 days thereafter, and to ensure induction of sufficient neuropathy, only mice with blood glucose levels exceeding 15 mmol/l are used. […] The time from initiation of heating to paw withdrawal is recorded in 4 separate trials 5 minutes apart, with the median value of the last 3 trials used for each mouse. […]
Briefly, male Swiss Webster mice were given a single injection of STZ (180 mg/kg i.p.) to induce insulin-deficient diabetes. […] The time from initiation of heating to paw withdrawal was recorded in 4 separate trials 5 minutes apart, with the median value of the last 3 trials used for each mouse.

## GDKA (Tissue protective peptide)
[1]
  activation of AKT (phosphorylation of Akt): activated AKT
[2]; eye drops 50 microliters of 50 nanomolar solution to both eyes five days/week, after 12 weeks of therapy
  thermal threshold (thermal withdrawal latency): normal thermal threshold
[2]; eye drops 50 nanomolar, five days/week, 12 weeks
  thermal threshold compared with PBS-treated diabetic mice: significantly lower
